# Source: ChEMBL document CHEMBL5604062, “ASAP - ZIKV NS2B-NS3 protease fluorescence dose response” (2024)
# Values joined by “and” are separate entries in the source; they are usually repeats but may differ in a detail not shown here. Equal values may be shown once.
# Biological target: Nonstructural protein 3 (Zika virus, UniProt A0A024AXB9)
# Experiment: Functional biochemical assay to identify treatments for viral infectious disease that targets Zika NS2B-NS3 protease. Utilizing a direct enzyme activity measurement method, reading the fluorescence intensity is used to characterize the relative potency of inhibitors as IC50.
# Set-up: species or system PRVABC59
# Nonstructural protein 3, sequence (A0A024AXB9 whole entry): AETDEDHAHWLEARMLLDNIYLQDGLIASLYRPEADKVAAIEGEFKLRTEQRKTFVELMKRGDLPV
row,Structure (SMILES),IC50
1,COc1cc(Br)cc(C(=O)Nc2ccc3c(c2)CNC3)c1,0.332 µM
2,CN1CCC([C@H]2CCCN(C(=O)Nc3ccc4c(c3)CNC4)C2)CC1,> 25 µM
3,O=C1NCc2c1cccc2C(=O)Nc1ccc2c(c1)CNC2,6.43 µM
4,O=C(NCC(F)F)[C@H](Nc1ccc2c(c1)CNC2)c1cc(Cl)cc(C2CC2)c1,0.024 µM and 0.023 µM and 0.062 µM and 0.015 µM and 0.017 µM and 0.065 µM
5,NCc1ccc(NC(=O)c2cc(Cl)cc3[nH]ncc23)cc1F,4.94 µM
6,Cc1cc(NC(=O)c2cc(Cl)cc3[nH]ncc23)ccc1N1CCNCC1,6.48 µM
7,O=C(NC[C@H]1CCCO1)[C@H](Nc1ccc2c(c1)CNC2)c1cc(Cl)cc2[nH]ncc12,0.111 µM
8,Cc1ccc(C)n1-c1ccc(Cl)cc1C(=O)Nc1ccc2c(c1)CNC2,> 25 µM
9,Cc1cc(C(=O)Nc2ccc3c(c2)CNC3)c2cn[nH]c2c1,0.077 µM and 0.066 µM
10,N#C[C@H](Nc1ccc2c(c1)CNC2)c1cccc2[nH]ncc12,2.61 µM
11,O=C(Nc1ccc2c(c1)CNC2)c1cnnc2ccccc12,19.6 µM
12,Cn1cc2cc(Cl)cc(C(=O)Nc3ccc4c(c3)CNC4)c2n1,0.214 µM
13,O=C(Nc1ccc2c(c1)CNC2)c1cc(Cl)cc2nccnc12,3.34 µM
14,O=C(Nc1ccc2c(c1)CNC2)N1CCC2(C1)CC(F)(F)C2,15.7 µM
15,CC(C)(C)c1ccc(Cl)cc1C(=O)Nc1ccc2c(c1)CNC2,2.46 µM
16,O=C(Nc1ccc2c(c1)CNC2)c1nc2ccccc2s1,> 25 µM
17,Cn1nc(C2CC2)cc1C(=O)Nc1cc(CCCN)ccn1,> 25 µM
18,Cc1cc(C(F)(F)F)cc(C(=O)Nc2ccc3c(c2)CNC3)n1,> 25 µM
19,Cc1n[nH]c2nc(Cl)cc(C(=O)Nc3ccc4c(c3)CNC4)c12,3.71 µM
20,NS(=O)(=O)c1ccc(C(F)F)cc1-c1ccc2[nH]c(C(=O)O)cc2c1,> 99.5 µM
21,CCc1ncc(Cl)cc1C(=O)Nc1ccc2c(c1)CNC2,1.6 µM
22,O=C(Cc1cccc2[nH]ncc12)Nc1ccc2c(c1)CNC2,> 25 µM

row,Structure (SMILES),IC50
1,O=C(Nc1ccc2c(c1)CNC2)[C@H]1CCCc2[nH]ncc21,> 25 µM
2,Cc1nc(C2CC2)sc1C(=O)Nc1cc(CCCN)ccn1,> 25 µM
3,C=C1C[C@H](c2cccc(CN)c2)[C@@H](c2cc(Cl)cc(NC(=O)OCc3ccccc3)c2)C1,> 25 µM
4,O=C(Nc1cc(Cl)cc(-c2ccc(C3(C(=O)O)CCNCC3)cc2)c1)OCc1ccccc1,> 99.5 µM
5,O=C(Nc1ccc2c(c1)CNC2)c1c(Br)cc(Cl)c2[nH]ncc12,9.14 µM
6,O=C(Nc1ccc2c(c1)CNC2)c1c(Br)ccc2[nH]ncc12,> 25 µM
7,N#C[C@]1(Nc2ccc3c(c2)CNC3)C(=O)Nc2ccc(Cl)cc21,1.54 µM
8,O=C(Nc1ccc2c(c1)CNC2)c1nccc2[nH]ncc12,6.08 µM
9,O=C(O)c1ccc2nc(Cc3c[nH]c4ccc(Cl)cc34)cn2c1,> 99.5 µM
10,CC(C)(C)OC(=O)N1Cc2ccc(NC(=O)c3cc(Cl)cc4[nH]ncc34)cc2C1,> 25 µM
11,Cn1ccc(-c2cc(CN)cc([C@@H]3C[C@H]3c3cc(Cl)cc(NC(=O)OCc4ccccc4)c3)c2)n1,8.05 µM
12,CC(C)(C)OC(=O)Cc1cc(CN)cc(NC(=O)c2cc(Cl)cc(NC(=O)OCc3ccccc3)c2)c1,> 99.5 µM
13,Cn1nc(C(=O)Nc2cc(CCCN)ccn2)cc1C1CC1,> 25 µM
14,O=C(Nc1ccc2c(c1)CNC2)c1cc(F)cc2[nH]nnc12,0.081 µM and 0.132 µM
15,N#Cc1cc(Cl)cc([C@H](C#N)Nc2ccc3c(c2)CNC3)c1,0.433 µM
16,Cc1cnc([C@H]2CCCN(C(=O)Nc3ccc4c(c3)CNC4)C2)s1,> 25 µM
17,CC(C)c1ccc(Cl)cc1C(=O)Nc1ccc2c(c1)CNC2,2.34 µM
18,Clc1cc(CNc2ccc3c(c2)CNC3)c2cn[nH]c2c1,3.28 µM
19,Clc1ccc2ncn(Cc3ccc4c(c3)CNC4)c2c1,> 99.5 µM
20,Cc1c(C(=O)Nc2cc(CCCN)ccn2)cnn1C1CC1,> 25 µM
21,O=C(Nc1ccc2c(c1)CNC2)c1cc(Cl)ccc1OC1CCCC1,5.03 µM
22,NCc1cc(C(F)(F)F)cc(-c2ccc3[nH]c(C(=O)O)cc3c2)n1,> 99.5 µM

row,Structure (SMILES),IC50
1,O=C(Nc1ccc2c(c1)OCCNC2)c1cc(Cl)cc2[nH]ncc12,1.66 µM
2,CNC(=O)[C@]1(Nc2ccc3c(c2)CNC3)CCc2ccccc21,> 25 µM
3,Cn1cc(CNC(=O)[C@H](Nc2ccc3c(c2)CNC3)c2cc(Cl)cc(C3CC3)c2)cn1,0.085 µM and 0.065 µM
4,C(#C[C@H](Nc1ccc2c(c1)CNC2)c1cccc2[nH]ncc12)c1ccccc1,> 25 µM
5,O=C(Nc1ccc2c(c1)CNC2)c1cc2ccccc2[nH]1,24.4 µM
6,CCc1cc(Cl)cc(C(=O)Nc2ccc3c(c2)CNC3)c1,0.457 µM
7,O=C(O)c1cc2cc(-c3cc(Cl)cn4ncnc34)ccc2[nH]1,> 99.5 µM
8,O=C(Nc1ccc2c(c1)COC2)c1cc(Cl)cc2[nH]ncc12,> 99.5 µM
9,Cn1cc2cc(C#N)cc(-c3ccc4[nH]c(C(=O)O)cc4c3)c2n1,> 25 µM
10,Cn1cnc2nc(Cl)cc(C(=O)Nc3ccc4c(c3)CNC4)c21,16.2 µM
11,NCc1cc(NC(=O)c2cc(Cl)cc(NC(=O)OCc3ccccc3)c2)cc(-c2ccc3c(c2)C[C@H](C(=O)O)CO3)c1,> 99.5 µM
12,O=C(Nc1cnc2c(c1)CNCC2)c1cc(Cl)cc2[nH]ncc12,0.366 µM
13,C[C@H](NC(=O)c1cc(Cl)cc2[nH]ncc12)c1ccc2c(c1)CNC2,1.28 µM
14,O=C(Nc1ccc2c(c1)CNC2)c1cc(F)cc2[nH]ncc12,0.04 µM and 0.049 µM
15,NCCCc1ccnc(NC(=O)c2cc(C3CC3)no2)c1,> 25 µM
16,NCCc1cccc(NC(=O)c2cc(Cl)cc3[nH]ncc23)c1,0.632 µM
17,O=C(Nc1ccc2c(c1)CNC2)c1cc(Cl)ccc1OCC(F)(F)F,2.77 µM
18,O=C(Nc1ccc2c(c1)CNC2)c1cc(Cl)nc2[nH]ncc12,1.54 µM
19,Cn1ncc2c(C(=O)Nc3ccc4c(c3)CNC4)cc(-c3cccnc3)nc21,> 25 µM
20,O=C(Nc1ccc2c(c1)CNCCO2)c1cc(Cl)cc2[nH]ncc12,0.835 µM
21,O=C(NC[C@H]1CCCO1)[C@H](Nc1ccc2c(c1)CNC2)c1cc(Cl)cc(C2CC2)c1,0.071 µM and 0.053 µM
22,CNC(=O)[C@]1(Nc2ccc3c(c2)CNC3)C(=O)Nc2c(OC)cc(Br)cc21,53.8 µM

row,Structure (SMILES),IC50
1,NCc1cc(-c2ccncc2)cc([C@@H]2C[C@H]2c2cc(Cl)cc(NC(=O)OCc3ccccc3)c2)c1,12.3 µM
2,COC(=O)CNC(=O)[C@H](Nc1ccc2c(c1)CNC2)c1cc(Cl)cc(C2CC2)c1,0.097 µM and 0.073 µM
3,CCn1ncc2c(C(=O)Nc3ccc4c(c3)CNC4)cc(C)nc21,4.41 µM
4,O=C(O)c1ccc(NC(=O)c2cc(Cl)cc3[nH]ncc23)cc1,> 99.5 µM
5,Cc1c(C(=O)Nc2cc(CCCN)ccn2)cc(-c2ccccc2)n1C,> 25 µM
6,NCCCc1ccnc(NC(=O)c2cnn3c2CCC3)c1,> 25 µM
7,Cc1ccc2[nH]ncc2c1C(=O)Nc1ccc2c(c1)CNC2,> 25 µM
8,CCS(=O)(=O)c1ccc(Cl)cc1C(=O)Nc1ccc2c(c1)CNC2,2.52 µM
9,O=C(O)Cc1cn2nc(-c3cc(Cl)cc(NC(=O)OCc4ccccc4)c3)ccc2n1,> 99.5 µM
10,O=C(NCC1CCOCC1)[C@H](Nc1ccc2c(c1)CNC2)c1cc(Cl)cc2[nH]ncc12,0.209 µM
11,CNC(=O)c1ccnc(NC(=O)c2cc(C3CC3)n(C)c2C)c1,> 25 µM
12,NCc1cc(NC(=O)c2cc(Cl)cc(NC(=O)OCc3ccccc3)c2)cc(-c2ccc(OCC(=O)O)nc2)c1,> 25 µM
13,Cc1c(C(=O)Nc2cc([C@H]3CCOC3)ccn2)cc(C2CC2)n1C,0.177 µM and 0.082 µM and 0.137 µM
14,O=C(Nc1ccc2c(c1)CNC2)c1ccc(F)c2[nH]ncc12,2.65 µM
15,O=C(NCc1ccc(F)cc1)[C@H](Nc1ccc2c(c1)CNC2)c1cc(Cl)cc2[nH]ncc12,0.078 µM and 0.065 µM
16,O=C(O)c1cc2cc(-c3cc(Cl)cc4c3O[C@H](CO)C4)ccc2[nH]1,> 25 µM
17,O=C(Nc1cccc2c1CNC2)c1cc(Cl)cc2[nH]ncc12,> 25 µM
18,O=C(O)Cn1nc2ccc(-c3cc(Cl)cc(NC(=O)OCc4ccccc4)c3)nn2c1=O,> 99.5 µM
19,COCCN(C)Cc1ccnc(NC(=O)c2cc(C3CC3)n(C)c2C)c1,> 25 µM
20,Cc1c(C(=O)Nc2ccc3c(c2)CNC3)cc(C2CC2)n1C,15.8 µM
21,Cc1ccc(Oc2ncccc2C#N)c(-c2ccc3[nH]c(C(=O)O)cc3c2)c1,> 99.5 µM
22,O=C(Nc1ccc2c(c1)CNC2)c1cncc(N2CCOCC2)c1,66.3 µM

row,Structure (SMILES),IC50
1,Cc1c(C(=O)Nc2cc(CCCN)ccn2)cc(C#N)n1C,> 25 µM
2,CCn1c(C)cc(C(=O)Nc2cc(CCCN)ccn2)c1C,> 25 µM
3,Cc1ccc(C(=O)Nc2ccc3c(c2)CNC3)c2[nH]ncc12,3.39 µM
4,N#C[C@H](Nc1ccc2c(c1)CNC2)c1cccc2c1CCNC2=O,22.4 µM
5,Cc1c(C(=O)Nc2ncc3c(c2C#N)CCOC3)cc(C2CC2)n1C,> 25 µM
6,O=C(Nc1ccc2c(c1)CNC2)c1cc(Cl)ccc1-n1ccnc1,3.54 µM
7,O=Cc1ccc(N2CCC(C(=O)N3CCN(c4ccc([N+](=O)[O-])cc4C(F)(F)F)CC3)CC2)cc1,> 0.782 µM
8,CN1[C@@H]2CCC[C@H]1C[C@@H](NC(=O)C1CCN(c3ccc(C=O)cc3)CC1)C2,> 99.9 µM
9,O=Cc1ccc(N2CCC(C(=O)N3CCC(N4CCc5ccccc5C4)CC3)CC2)cc1,> 0.782 µM
10,O=Cc1ccc(N2CCC(C(=O)NC[C@H](O)c3ccc(O)c(O)c3)CC2)cc1,> 12.7 µM
11,O=Cc1ccc(N2CCC(C(=O)N3CCC(CCN4CCCC4)CC3)CC2)cc1,> 99.9 µM
12,O=Cc1ccc(N2CCC(C(=O)NCCc3ccccc3[N+](=O)[O-])CC2)cc1,> 50.2 µM
13,CCN1CCN(c2ccc(NC(=O)C3CCN(c4ccc(C=O)cc4)CC3)cc2)CC1,81.6 µM
14,CS(=O)(=O)c1ccc(N2CCN(C(=O)C3CCN(c4ccc(C=O)cc4)CC3)CC2)c([N+](=O)[O-])c1,> 0.782 µM
15,O=Cc1ccc(N2CCC(C(=O)NC[C@@H]3CCCN4CCCC[C@H]34)CC2)cc1,> 0.782 µM
16,O=Cc1ccc(N2CCC(C(=O)Nc3ccc(Br)cc3O)CC2)cc1,67.6 µM
17,O=Cc1ccc(N2CCC(C(=O)NCCC3CCN(Cc4ccccc4)CC3)CC2)cc1,> 50.2 µM
18,CC1CCN(CCCCNC(=O)C2CCN(c3ccc(C=O)cc3)CC2)CC1,> 24.9 µM
19,CC(=O)Nc1cccc(CNC(=O)C2CCN(c3ccc(C=O)cc3)CC2)c1,> 99.9 µM
20,O=Cc1ccc(N2CCC(C(=O)N3CCN(c4cccc(O)c4)CC3)CC2)cc1,49.4 µM
21,O=Cc1ccc(N2CCC(C(=O)N3CCN(CCc4ccccc4)CC3)CC2)cc1,> 50.2 µM
